{"source": "patent US20230285357A1", "about": "“COMPOSITIONS AND METHODS FOR […] CELLS” (The Regents of the University of California, priority 2020, published 2023)", "key": {"[1]": {"test_system": "mouse osteoblast line MC3T3", "test": "Real-time PCR of osteogenic, endothelial and other lineage markers in treated mouse osteoblasts", "format": "cell-based", "excerpt": "A high throughput screen was generated by modifying the mouse osteoblast line MC3T3. Fetal liver kinase 1 (Flk1) promoter-driven enhanced green fluorescent protein (eGFP) was introduced into these osteoblasts. […] Several libraries of small molecules, including a FDA-approved drug library, a UCLA in-house collection, and a custom set of compounds were screened. These libraries contained more than 22,000 small molecules ranging from natural products to synthesized compounds. […] Using arrange of dose (1-10 μM), it is shown that the reduction of the osteogenic markers Cbfa1, osterix and osteocalcin and the induction of the endothelial markers CD34, VE-cadherin, CD31 and eNOS occurred in a dose-dependent manner (FIG. 1, Part E). Osteoblasts were then treated with 10 μM SB216763 and examined the time-course expression of these osteogenic and endothelial markers. […] To determine if a mesenchymal stage or emerging stemness is required for SB216763 to induce osteoblastic-endothelial transdifferentiation, mesenchymal and stem cell markers were examined and found no induction in the SB216763-treated cells (FIG. 9, Part E). It was further determined the specificity of endothelial differentiation by closely examining other vascular lineage markers including smooth muscle cells (SMCs), pericytes, and fibroblasts by using real-time PCR. In addition, no-vascular lineages, such as cardiac, neuronal, hepatic, pulmonary, renal, hematopoietic and adipogenic lineages were examined. […] Because GSK3 is important in glucose metabolism, the expression of genes related to glucose metabolism was determined in the SB216763-treated osteoblasts, such as casein kinase 2, glucose transporter 4, and insulin receptor substrates 1 and 2.\nReal-time PCR analysis was performed as previously described. Glyceraldehyde 3-phosphate dehydrogenase (GAPDH) was used as a control gene. Primers and probes for mouse and human Cbfa1, ostrix, osteocalcin, CD34, VE-cadherin, CD31, eNOS, SMAD1, and β-catenin, were obtained from Applied Biosystems as part of Tagman® Gene Expression Assays."}, "[2]": {"test_system": "osteoblasts", "test": "Osteogenesis assay in osteogenic induction media, von Kossa staining", "format": "cell-based, mouse", "method": "To assess the functional capacity of SB216763-treated osteoblasts, they were treated with osteogenic induction media in vitro. […] A transplantation experiment was then performed to examine the capacity for bone formation using a well-established bone formation assay in vivo. This assay was adapted and eGFP positive cells were used, which were isolated from SB216763-treated Flk1-eGFP osteoblasts (FIG. 2, Part A).\nThe cells were then subjected to osteogenic induction media. […] Cells was transplanted into nude mice to test ectopic bone formation."}, "[3]": {"test_system": "vascular calcification in Mgp−/− mice", "test": "Early vascular calcification in Mgp−/− mice", "format": "in vivo, mouse", "settings": "Mgp−/− mice at 2 weeks of age, 5 ug/g daily for 2 weeks", "method": "To examine whether SB216763 could be used for treatment of vascular calcification, the Mgp^−/− mouse was chosen, a well-known model of calcification. Mgp^−/− mice develop arterial calcification as early as postnatal day 14. At 4 weeks of age, the entire arterial vasculature is severely calcified. Two independent experiments were performed to test if SB216763 decreased calcification in Mgp^−/− mice. First, young Mgp^−/− mice at 2 weeks of age with SB216763 were treated (5 ug/g daily) for 2 weeks to determine if SB216763 prevented osteogenesis in the Mgp^−/− aortas (FIG. 5, Part A).\nMgp^+/− (B6.129S7-Mgptm1Kry/KbosJ), Col1α1^CreERT2 (B6.Cg-Tg(Col1α1-cre/ERT2)1Crm/J), GSK3β^flox/flox (B6.129(Cg)-Gsk3btm2Jrw/J) and Osx-Gfptg (B6.Cg-Tg(Sp7-tTA,tetO-EGFP/cre)1Amc/J) mice on C57BL/6J background were purchased from the Jackson Laboratory. Genotypes were confirmed by PCR, and experiments were performed with generation F4-F6. Littermates were used as wild type controls. All mice were fed a standard chow diet. The studies were reviewed and approved by the Institutional Review Board and conducted in accordance with the animal care guidelines set by the University of California, Los Angeles (UCLA). The investigation conformed to the National Research Council, Guide for the Care and Use of Laboratory Animals, Eighth Edition (Washington, D.C.: The National Academies Press, 2011)."}, "[4]": {"test_system": "aortic cells of Osx-GfptgMgp−/− mice", "test": "Osteoblastic-lineage tracing in Osx-GfptgMgp−/− mice, FACS of aortic cells", "format": "in vivo, mouse", "settings": "Osx-GfptgMgp−/− mice treated for 2 weeks", "method": "(§1) Then, mice were treated with or without SB216763 for 2 weeks. […] Then, the alteration of GFP and CD31 double positive cells (GFP+CD31+) were characterized after SB216763 treatment. […] Same numbers of cells of each group were used to perform a transplantation experiment to examine the capacity of bone formation by using bone formation assay in vivo.\nFACS analysis was performed as previously described. The cells were stained with fluorescein isothiocyanate (FITC)-, phycoerythrin (PE)-, or Alexa Fluor 488 (AF-488)-conjugated antibodies against CD31 and VE-cadherin (all from BD biosciences, 550274 and 562243), osterix (Santa Cruz Biotechnology, sc-22536). Nonspecific fluorochrome- and isotype-matched IgGs (BD Pharmingen) served as controls."}, "[5]": {"test_system": "GFP+CD31+ aortic cells", "test": "Bone formation assay in vivo with GFP+CD31+ aortic cells of treated mice", "set-up": "species or system mouse", "method": "as §1"}, "[6]": {"test_system": "GFP+CD31+ aortic cells", "test": "Hindlimb ischemia model with GFP+CD31+ aortic cells of treated mice", "format": "in vivo, mouse", "settings": "mice transplanted with GFP+CD31+ aortic cells of treated group", "method": "The capacity of GFP+CD31+ aortic cells for vascular repair was examined by using hindlimb ischemia model. […] The murine model of hindlimb ischemia was performed as previously described. A 10 mm long incision of the skin was made towards the medial thigh. The femoral artery was exposed and separated from femoral vein and nerve. Silk sutures were used to tie the proximal and the distal end of femoral artery with double knots. The cells (5×10^5) were transplanted into the surgical area and the incision was closed. Laser Doppler perfusion imaging was used to monitor the blood flow at different time points. Histology and immunostaining were used to examine the vascularization 2 weeks after transplantation."}, "[7]": {"test_system": "GSK3α and GSK3β", "settings": "cited from earlier work"}, "[8]": {"settings": "dose range 1-10 μM, dose-dependent manner"}}, "data": [{"smiles": "Cn1cc(C2=C(c3ccc(Cl)cc3Cl)C(=O)NC2=O)c2ccccc21", "note": "[SB216763]", "values": [{"measurement": "time-course expression of osteogenic and endothelial markers", "setting": "[1]; 10 μM", "value": "a reduction of osteogenic markers preceded the induction of the endothelial markers"}, {"measurement": "expression of endothelial markers CD34, VE-cadherin, CD31 and eNOS", "setting": "[1]; [8]", "value": "induction"}, {"measurement": "expression of osteogenic markers Cbfa1, osterix and osteocalcin", "setting": "[1]; [8]", "value": "reduction"}, {"measurement": "other vascular and non-vascular lineage markers (SMC, pericyte, fibroblast, cardiac, neuronal, hepatic, pulmonary, renal, hematopoietic, adipogenic)", "setting": "[1]; real-time PCR", "value": "No changes were found"}, {"measurement": "mesenchymal and stem cell markers", "setting": "[1]; treated cells", "value": "no induction"}, {"measurement": "expression of genes related to glucose metabolism (casein kinase 2, glucose transporter 4, insulin receptor substrates 1 and 2)", "setting": "[1]; treated osteoblasts", "value": "No changes were detected"}, {"measurement": "mineralization, von Kossa staining", "setting": "[2]; SB216763-treated cells after restoring SMAD1 or depletion of β-catenin", "value": "clear mineralization"}, {"measurement": "mineralization, von Kossa staining", "setting": "[2]; SB216763-treated cells in osteogenic induction media", "value": "lack of mineralization"}, {"measurement": "CD31+ aortic cells co-expressing VE-cadherin and osterix, FACS", "setting": "[3]", "value": "decreased number of cells that co-expressed VE-cadherin and osterix"}, {"measurement": "CD31+ aortic cells expressing only VE-cadherin, FACS", "setting": "[3]", "value": "increased number of cells that only expressed VE-cadherin"}, {"measurement": "aortic mineralization, von Kossa staining", "setting": "[3]", "value": "dramatic decrease in aortic mineralization"}, {"measurement": "immunoblotting of aortic tissues", "setting": "[3]", "value": "decreased Cbfa1 and osterix, increased von Willebrand factor (vWF) and VE-cadherin and altered SMAD1 and β-catenin"}, {"measurement": "total aortic calcium", "setting": "[3]", "value": "decrease in calcium deposition"}, {"measurement": "aortic cells co-expressing GFP and CD31, FACS", "setting": "[4]", "value": "decreased number of cells that co-expressed GFP and CD31"}, {"measurement": "aortic cells expressing only CD31, FACS", "setting": "[4]", "value": "increased number of cells that only expressed CD31"}, {"measurement": "osteocytes in implants, histology", "setting": "[5]; implants with GFP+CD31+ aortic cells of treated group", "value": "lack of osteocytes"}, {"measurement": "ectopic bone by Micro-CT", "setting": "[5]; implants with GFP+CD31+ aortic cells of treated group vs controls", "value": "smaller size of ectopic bone, less trabecular formation and less bone volume"}, {"measurement": "limb blood flow, Laser Doppler perfusion imaging", "setting": "[6]", "value": "higher limb blood flow"}, {"measurement": "vascular density, histology", "setting": "[6]", "value": "increase in vascular density"}, {"measurement": "inhibition of GSK3 isoforms GSK3α and GSK3β", "setting": "[7]", "value": "specifically inhibits the activity of these GSK3 isoforms in an ATP competitive manner"}]}]}
